# Read-outs that look alike come from different tables or passages of the source.
# Legend:
# [1] = High-throughput (HT) solubility determination; type: physicochemical; details: kinetic from dmso stock
# Method: The chromatographic system consists of an Agilent 1290 UPLC/DAD system and ChemStation software, both from Agilent Technologies, USA. The separations are carried out on a Supelco Ascentis Express C18, 30 mm×3.0 mm I.D., 2.7 μm HPLC column. The mobile phase consists of Potassium phosphate buffered at pH 7 (mobile phase A) and acetonitrile (mobile phase B). The column oven temperature is set to 30° C. and the UPLC analysis consists of a gradient. The injection volume is 2 μL and the spectrophotometric detection is set to 215 and 238 nm.
# A 10 mM stock solution of the compound in DMSO is supplied for analysis. 2.5 μL of stock solution (10 mM) was diluted into 247.5 μL of organic co-solvents (10% MeCN/80% MeOH/10% DMSO, v/v/v) to create a standard solution of 100 μM. To create the solubility solutions, 4.1 μL of 10 mM DMSO stock solution was diluted into […] of phosphate buffered saline (PBS) (pH 7) solution. A second 4.1 μL aliquot of 10 mM DMSO stock solution was added to 196 μL of PBS (pH 2) solution. A third 4.1 uL aliquot of 10 mM DMSO stock solution was added to 196 uL of FaSSIF (pH 6.5) solution. […] The equilibrated solubility solutions were filtered by centrifugation using a filter (0.45 μm, polypropylene). 50 μL each of the 100 μM standard solution and the filtered equilibrated solubility solutions were placed into a 384 well plate, and the plate was subsequently heat sealed.
# Each standard and solubility solution was analyzed by UPLC/DAD. The solubility value was calculated by the following equation: Solubility=(Peak area of sample/Peak area of standard) (Standard concentration)
# Human plasma kallikrein = target: T1, Human plasma kallikrein (Homo sapiens, UniProt P03952); assay: Kallikrein assay (plasma kallikrein); type: biochemical; details: purified Human plasma kallikrein 0.5 nM, Acetyl-K-P-R-AFC substrate, pH 7.4; read-out: pKal IC50
# T1 construct: yields a heavy chain (371 amino acids) and a light chain (248 amino acids); purchased Enzyme Research Laboratories
# T1 sequence (P03952 391-638 limits assumed): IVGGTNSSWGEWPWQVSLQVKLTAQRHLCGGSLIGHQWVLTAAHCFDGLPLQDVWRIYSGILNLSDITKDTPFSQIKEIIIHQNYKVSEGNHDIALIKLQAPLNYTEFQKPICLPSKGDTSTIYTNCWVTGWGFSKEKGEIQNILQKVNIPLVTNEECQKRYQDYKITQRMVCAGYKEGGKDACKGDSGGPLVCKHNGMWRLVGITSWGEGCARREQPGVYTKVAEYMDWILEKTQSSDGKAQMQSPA
# T1 sequence (P03952 20-390 partner limits assumed): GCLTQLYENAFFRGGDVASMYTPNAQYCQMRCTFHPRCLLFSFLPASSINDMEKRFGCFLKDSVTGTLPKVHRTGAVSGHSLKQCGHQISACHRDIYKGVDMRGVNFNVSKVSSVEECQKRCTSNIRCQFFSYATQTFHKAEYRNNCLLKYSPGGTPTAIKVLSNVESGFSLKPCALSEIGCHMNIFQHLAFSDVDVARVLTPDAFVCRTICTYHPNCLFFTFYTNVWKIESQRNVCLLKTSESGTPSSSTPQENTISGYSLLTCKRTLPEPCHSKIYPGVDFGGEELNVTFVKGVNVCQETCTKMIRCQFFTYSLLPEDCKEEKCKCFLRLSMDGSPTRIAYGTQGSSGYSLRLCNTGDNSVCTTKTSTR
# Method: The effectiveness of a compound of the present invention as an inhibitor of Kallikrein can be determined using a relevant purified serine protease, and an appropriate synthetic substrate. The rate of hydrolysis of the chromogenic or fluorogenic substrate by the relevant serine protease was measured both in the absence and presence of compounds of the present invention. Assays were conducted at room temperature or at 37° C. […] A decrease in the rate of fluorescence change in the presence of inhibitor is indicative of enzyme inhibition. Such methods are known to one skilled in the art. The results of this assay are expressed as the half-maximal inhibitory concentrations (IC50), or the inhibitory constant. Ki.
# Kallikrein determinations were made in 50 mM HEPES buffer at pH 7.4 containing 150 mM NaCl, 5 mM CaCl2, and 0.1% PEG 8000 (polyethylene glycol; Fisher Scientific). Determinations were made using purified Human plasma kallikrein at a final concentration of 0.5 nM (Enzyme Research Laboratories) and the synthetic substrate. Acetyl-K-P-R-AFC (Sigma # C6608) at a concentration of […].
# Activity assays were performed by diluting a stock solution of substrate at least tenfold to a final concentration≤ 0.2 Km into a solution containing enzyme or enzyme equilibrated with inhibitor. Times required to achieve equilibration between enzyme and inhibitor were determined in control experiments. The reactions were performed under linear progress curve conditions and fluorescence increase measured at 405 Ex/510 Em nm. Values were converted to percent inhibition of the control reaction (after subtracting 100% Inhibition value). IC50 was determined by inflection point from a four parameter logistic curve fit. Ki was calculated using the Cheng Prusoff equation. Ki=IC50/(1+([S]/Km)).
# [2] = Rat pharmacokinetics (cassette IV or screening IV/PO); type: in vivo; details: male; rat plasma, mean residence time
# Method: Plasma pharmacokinetic parameters for clearance, volume of distribution, half-life and mean residence time (MRT) were determined in rats from IV cassette administration studies. 2 male rats typically weighing 225-260 gram, were fasted overnight prior to dosing. Compounds were prepared for IV dosing by addition to a vehicle, depending on the dose used. For a typical preparation, 1 mg per mL (IV) of up to 5 test compounds were added to vehicle comprised of 20% dimethyl sulfoxide (DMSO), 60% polyethylene glycol 400 (PEG400) and 20% water. IV formulation was administered to 2 rats via pre-cannulated jugular vein. Blood was collected by pre-cannulated artery, typically at predose, 2, 8, 15, 30 min. 1, 2, 4, 6, and 8 hr postdose. Samples were collected in K2EDTA tubes, stored on ice, and centrifuged. Plasma was transferred to a micro titer plate and stored at −70° C.until analysis. Plasma samples were extracted using protein precipitation and analyzed by liquid chromatography separation followed by mass spec detection (LCMS/MS), using a standard curve for each compound. Plasma pharmacokinetic parameters were calculated by non-compartmental methods.
# Plasma pharmacokinetic parameters for clearance, volume of distribution, half-life, mean residence time (MRT) and oral bioavailability (%F)-were determined in rats from oral administration and IV administration studies. 4 male rats, typically weighing 225-260 gram, were fasted overnight prior to dosing. Compounds were prepared for oral and IV dosing by addition to a vehicle, depending on the dose used. For a typical preparation, 1 mg per mL (IV) or 1.5 mg per mL (oral) of test compound was added to vehicle comprised of 20% dimethyl sulfoxide (DMSO), 60% polyethylene glycol 400 (PEG400) and 20% water. IV formulation was administered to 2 rats via pre-cannulated jugular vein, and oral dosing was administered to 2 rats via oral gavage. Blood was collected by pre-cannulated artery, typically at predose, 2 min, 8 min, 15 min. 30 min, and 1, 2, 4, 6, and 8 hr postdose for IV, and at predose, 15 min, 30 min, and 1, 2, 4, 6, 8 hr for oral dosing. Samples were collected in K2EDTA tubes, stored on ice, and centrifuged. Plasma was transferred to a micro titer plate and stored at −70° C. until analysis. Plasma samples were extracted using protein precipitation and analyzed by liquid chromatography separation followed by mass spec detection (LCMS/MS), using a standard curve for each compound. Plasma pharmacokinetic parameters were calculated for IV and oral dosing data by non-compartmental methods. Oral bioavailability was determined as the ratio of the dose-normalized plasma area under the curve (AUC) following oral dosing vs. IV dosing.
# [3] = FaSSIF pH 6.5, shaken 24 hours at 25° C., read-out: pH 6.5 (FaSSIF) solubility
# [4] = phosphate buffered saline (PBS) pH 2, aqueous buffer, PBS pH 2, shaken 24 hours at 25° C., read-out: pH 2 solubility
"solubility kinetic at 24 h [1, 3]","solubility kinetic at 24 h [1, 4]",IC50 (Human plasma kallikrein),MRT [2],Structure (SMILES)
39 µM,147 µM,119 nM,4 h,"CCOC(=O)c1[nH]c2nc1-c1ccc(NC(=O)OC)cc1NC(=O)C(C)(C)CCC[C@@H]2c1ccc(-c2cc(F)ccc2-n2cc(C(F)(F)F)cn2)c[n+]1[O-] [Example 1, (R,Z)-2-(1^5-(ethoxycarbonyl)-2^4-((methoxycarbonyl)amino)-5,5-dimethyl-4-oxo-1^1H-3-aza-1(4,2)-imidazola-2(1,2)-benzenacyclononaphane-9-yl)-5-(5-fluoro-2-(4-(trifluoromethyl)-1H-pyrazol-1-yl)phenyl)pyridine 1-oxide]"
27 µM,104 µM,11 nM,3.7 h,"CCOC(=O)c1[nH]c2nc1-c1ccc(NC(=O)OC)cc1NC(=O)C(C)(C)CCC[C@@H]2c1ccc(-c2cc(Cl)ccc2-n2cc(C(F)(F)F)cn2)c[n+]1[O-] [Example 2, (R,Z)-5-(5-chloro-2-(4-(trifluoromethyl)-1H-pyrazol-1-yl)phenyl)-2-(1^5-(ethoxycarbonyl)-2^4-((methoxycarbonyl)amino)-5,5-dimethyl-4-oxo-1^1H-3-aza-1(4,2)-imidazola-2(1,2)-benzenacyclononaphane-9-yl)pyridine 1-oxide]"
40 µM,171 µM,1.4 nM,3.2 h,"CCOC(=O)c1[nH]c2nc1-c1ccc(NC(=O)OC)cc1NC(=O)C(C)(C)CCC[C@@H]2c1ccc(-c2cc(F)ccc2OC(F)F)c[n+]1[O-] [Example 3, (R,Z)-5-(2-(difluoromethoxy)-5-fluorophenyl)-2-(1^5-(ethoxycarbonyl)-2^4-((methoxycarbonyl)amino)-5,5-dimethyl-4-oxo-1^1H-3-aza-1(4,2)-imidazola-2(1,2)-benzenacyclononaphane-9-yl)pyridine 1-oxide]"
33 µM,137 µM,104 nM,3.8 h,"CCOC(=O)c1[nH]c2nc1-c1ccc(NC(=O)OC)cc1NC(=O)C(C)(C)CCC[C@@H]2c1ccc(-c2cc(Cl)cnc2OC(F)F)c[n+]1[O-] [Example 4, (R,Z)-5′-chloro-2′-(difluoromethoxy)-6-(1^5-(ethoxycarbonyl)-2^4-((methoxycarbonyl)amino)-5,5-dimethyl-4-oxo-1^1H-3-aza-1(4,2)-imidazola-2(1,2)-benzenacyclononaphane-9-yl)-[3,3′-bipyridine] 1-oxide]"
51 µM,108 µM,0.49 nM,3.7 h,"CCOC(=O)c1[nH]c2nc1-c1ccc(NC(=O)OC)cc1NC(=O)C(C)(C)CCC[C@@H]2c1ccc(-c2cccc(Cl)c2F)c[n+]1[O-] [Example 5, (R,Z)-5-(3-chloro-2-fluorophenyl)-2-(1^5-(ethoxycarbonyl)-2^4-((methoxycarbonyl)amino)-5,5-dimethyl-4-oxo-1^1H-3-aza-1(4,2)-imidazola-2(1,2)-benzenacyclononaphane-9-yl)pyridine 1-oxide]"
64 µM,163 µM,122 nM,3.1 h,"COC(=O)Nc1ccc2c(c1)NC(=O)C(C)(C)CCC[C@H](c1ccc(-c3cc(F)ccc3-n3cc(C(F)(F)F)cn3)c[n+]1[O-])c1nc-2c(C(=O)OC)[nH]1 [Example 6, (R,Z)-5-(5-fluoro-2-(4-(trifluoromethyl)-1H-pyrazol-1-yl)phenyl)-2-(1^5-(methoxycarbonyl)-2^4-((methoxycarbonyl)amino)-5,5-dimethyl-4-oxo-1^1H-3-aza-1(4,2)-imidazola-2(1,2)-benzenacyclononaphane-9-yl)pyridine 1-oxide]"

# Reference: US12497403B2, “Factor XIa inhibitors” (Merck Sharp & Dohme LLC, priority 2021, dated 2025)
